Experimental data published in PubChem BioAssay AID463074 (Broad Institute, 2010).
The source made the active and inactive calls.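 The calls were made as follows: active = AC50 no more than tenfold above the top dose tested, or full inhibition at every dose with a flat fit (cut at about 19 µM in these data); inconclusive = flat curve fit with inhibition between 30% and 70%, or poor fit; inactive = AC50 more than tenfold above the top dose tested.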

Test system: HMLE_sh_eGFP viability, CellTiter-Glo luminescence, 72 h
Assay: viability loss of HMLE_sh_eGFP cells – cell-based, luminescence, counter-screen for HMLE_sh_ECad selective toxicity project, dose response (AID 463074);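 also: counterscreen control line to flag general toxicity for the HMLE_sh_ECad screen; potency for loss of viability as luminescence drops below DMSO wells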

SMILES | AC50
O=C(NCCCN1CCOCC1)c1ccc(Sc2ccc(Br)cc2)c([N+](=O)[O-])c1 | < 0.16 µM
O=c1c(Cl)c(NCc2ccc(F)cc2)cnn1C12CC3CC(CC(C3)C1)C2 | 2.15 µM
Cc1cc2nc(NCCCO)n(CC(=O)c3cc(C(C)(C)C)c(O)c(C(C)(C)C)c3)c2cc1C | 3.56 µM
COc1ccc(NC(=O)c2cc3ccc(O)cc3o/c2=N\O)cc1 | 9.36 µM
CCOC(=O)c1c(NC(=O)/C=C/c2ccc3c(c2)OCO3)sc(C)c1CC | 1.35 µM
COc1cc(C#Cc2c(-c3cncn3C)n(C)c3ccc(-c4ccc(OC)nc4)cc23)cc(OC)c1 | 6.61 µM
COc1ccc(NC(=O)c2ccc(COc3ccccc3Br)o2)cc1OC | 0.756 µM
COc1ccc(-c2c(C#N)c(SCC(=O)c3cc4ccccc4oc3=O)nc(C)c2C(=O)Nc2ccccc2)cc1 | 1.5 µM
Cc1cccc(NC(=O)c2nc[nH]c2C(=O)NC2CCN(C(=O)OC(C)(C)C)CC2)c1 | 6.79 µM
Cc1ccc(-c2nc(Nc3cccc(O)c3)c3ccccc3n2)cc1 | 7.23 µM
CCC(C)Sc1ccc(-c2nc3cnccn3c2NC2CCCCC2)cc1 (stereo not drawn) | 3.73 µM
C[C@]12CC[C@H](O)C[C@H]1CC[C@@H]1C2CC[C@]2(C)[C@@H](C3=CC(=O)OC3)[C@@H](O)C[C@]12O (stereo partly drawn) | 1.55 µM
CCOC(=O)c1sc(NC(=O)c2cc(-c3ccccc3C)nc3ccccc23)c(C#N)c1C | 5.17 µM
CCOC(=O)C1=C(C)N2C(=C(C#N)[C@@H]1c1ccc(C(=O)OC)cc1)SC[C@@]2(O)C(C)(C)C | 4.79 µM
O=C(CC1Nc2ccccc2NC1=O)Nc1ccccc1 (stereo not drawn) | 1.04 µM
CCNC(=S)N1N=C2c3ccccc3CCC2C1c1ccc(F)cc1 (stereo not drawn) | 2.91 µM
C#CCOCCOCCOCCNc1nc(N2CCN(C(=O)CCCCCCCCCCNC(=O)Cn3cc(C[C@@H](C)O)nn3)CC2)nc(N2CCN(C(=O)CCCCCCCCCCNC(=O)[C@H](CCCCN)n3cc(C[C@@H](C)CC)nn3)CC2)n1 | 6.8 µM
N=c1c2c(ncn1Cc1ccco1)Oc1c(ccc3ccccc13)C2c1ccccc1 (stereo not drawn) | 3.92 µM
CC(C)n1cnc2c(NCc3ccccc3)cc(Cc3ccc(F)cc3)cc21 | 4.67 µM
CC(=O)c1ccc(N2CCN(S(=O)(=O)c3cc(-c4cc(C)no4)ccc3C(C)C)CC2)cc1 | 0.205 µM
CCc1cc(-c2n[nH]c(C)c2Oc2ccc(C(C)C)cc2)c(O)cc1O | 3.65 µM
CC1=C(/C=C/C(C)=C/C=C/C(C)=C/C(=O)Nc2ccc(O)cc2)C(C)(C)CCC1 | 2.26 µM
COc1ccc(-c2nc(N)nc(C)c2Oc2ccccc2Br)c(O)c1 | 5.08 µM
N#CC1(NC(=O)COC(=O)c2cc(O)c3ccccc3c2O)CCCCC1 | 9.15 µM
C=CCC[C@@H](Cc1ccc(F)cc1)C(=O)OC[C@@H](Cc1c[nH]c2ccccc12)NC(=O)[C@@H](CC=C)CC(=O)N(CCO)Cc1ccccc1 | 7.13 µM

SMILES | AC50
COc1ccc(C)cc1Nc1n[n+](-c2ccccc2)c(-c2c(OC)ccc3ccccc23)s1 | 6.93 µM
CS(=O)(=O)c1ncc(Cl)c(C(=O)Nc2ccc(N3CCOCC3)cc2)n1 | 6.81 µM
Cc1ccc(NC2=C(Cl)C(=O)c3ccccc3C2=O)cc1 | 1.95 µM
CC(=O)Nc1ccc(NC(=O)c2nc(S(=O)(=O)Cc3cccc(C)c3)ncc2Cl)cc1 | 4.99 µM
COc1cc(/C=C/c2[nH]c(=O)[nH]c(=O)c2[N+](=O)[O-])ccc1OCCC(C)C | 7.14 µM
Cc1ccc(-c2nc(C(Cl)Cl)c3ccccc3n2)cc1 | 1.33 µM
O/N=C/c1cc(Cl)ccc1OCc1ccccc1Cl | 6.08 µM
Oc1ccc(Br)cc1-c1cc(-c2ccccc2)n[nH]1 | 6.31 µM
CCCCCc1cc(=O)oc2c(C(CCN3CCCCC3)c3ccc4c(c3)OCO4)c(OC)cc(OC)c12 (stereo not drawn) | 6.89 µM
CCc1ccc([C@@H]2CC=C(C(=O)O)[C@H](c3ccc(Cl)cc3)N2S(=O)(=O)c2ccc(C)cc2)cc1 | 7.1 µM
Cc1cccc(CN2C(=O)/C(=C\c3ccc(C(=O)NCCCN4CCN(C)CC4)cc3)Oc3ccccc32)c1 | 3.62 µM
CCN(Cc1ccccc1)c1ccc(/C=N/N=C(N)N)cc1 | 3.16 µM
CCSc1ncc(/C=N/Nc2ccc(Cl)cc2)n1C | 6.75 µM
COc1cccc(/C=N/NC(=O)c2[nH]c(C)c(C(=O)N/N=C/c3cccc(OC)c3O)c2C)c1O | 4.53 µM
Brc1cccc(OCCN2CCc3ccccc3C2)c1 | > 19.5 µM (inactive)
O=C(/C=C/c1ccc2c(c1)OCO2)NCCSCc1ccc(Cl)cc1 | 0.957 µM
Cc1cc(N=Nc2ccc3ccccc3c2)ccc1O | 6.83 µM
Cc1cc(OCC(=O)Nc2ccc(S(=O)(=O)NC3=NCCCCC3)cc2)c(C(C)C)cc1Cl | 10.2 µM
NC(=O)CC(NC(=O)Cc1cccc2ccccc12)c1ccc(N2CCc3ccccc3C2)c([N+](=O)[O-])c1 (stereo not drawn) | 17.6 µM
C=CCn1c(CNc2ccc(C)cc2)nnc1SCC(=O)N/N=C/c1ccc(O)cc1O | 2.97 µM
Oc1ccc(/C=C/c2nc(-c3ccccc3O)n(-c3ccccc3)n2)cc1 | 6.7 µM
Cc1ccc(CNc2nc(-c3cccs3)nc3ccccc23)cc1 | 8.41 µM
C/C(N=Nc1nc2ccccc2s1)=N\Nc1ccccc1O | 6.1 µM
COc1cccc(/C=N/NC(=O)CSc2nnc(C)n2-c2ccccc2)c1O | 5.01 µM
Cc1ccccc1CS(=O)(=O)c1ncc(Cl)c(C(=O)Nc2ccc(F)cc2)n1 | 4.11 µM

SMILES | AC50
Cc1ccc(Nc2nc(N)c([N+](=O)[O-])c(NCc3ccco3)n2)cc1C | 7.19 µM
Cc1nc2c3cc(F)ccc3n(Cc3ccccc3)c2s1 | 0.825 µM
Cc1ccc(-c2csc(-c3c[nH]c4ccccc34)n2)c(C)c1 | 4.19 µM
O=C(NNC1=C(C(=O)C(F)(F)F)CCC1)c1cccc(Cl)c1 | 3.64 µM
Cc1cccc(-c2oc3ccccc3c2C#CCCCCO)c1 | 7.62 µM
COc1ccc(CCn2c(C3CCCCC3)nc3c(c(=O)c4ccccc4n3C)c2=O)cc1 | 5.17 µM
CC(c1ccccc1)N1C(=O)/C(=C/c2ccncc2)SC1=S (stereo not drawn) | 17.2 µM
CC(Nc1nc(-c2ccccc2)nc2ccccc12)c1ccccc1 (stereo not drawn) | 5.38 µM
COc1nc(N2CCCCCC2)nc(N2CCCCCC2)n1 | 7.43 µM
COc1ccc(CCC(C)NCC2CCCCC2)cc1 (stereo not drawn) | 1.66 µM
CCC(C)c1ccccc1NC(=O)COC(=O)c1ccc2[nH]c3c(c2c1)CCCC3 (stereo not drawn) | 3.4 µM
COc1cccc(-c2sc3ccc(OC)cc3c2C#CC2(O)CCCCC2)c1 | 7.25 µM
CCCCN(CC)S(=O)(=O)c1ccc(C(=O)N(CCCN(C)C)c2nc3cc(C)cc(C)c3s2)cc1 | 7.21 µM
Cn1nnnc1Sc1ncnc2scc(Br)c12 | 6.78 µM
Cc1ccc(/C=N/NC(=O)c2ccc3c(c2)OCCO3)s1 | 2.49 µM
Cc1ccc(F)c([C@H]2C3C=CCC(c4ccccc4)C3C(=O)N2Cc2ccccc2)c1 (stereo partly drawn) | 6.52 µM
CCCCCCCCOC(=O)c1c(CSC(=N)N)n(C)c2cc(Br)c(OC(C)=O)cc12 | 3.72 µM
COc1cc(NS(=O)(=O)c2ccc(N/C=C(\C#N)c3nc4cc(Cl)ccc4o3)cc2)nc(OC)n1 | 7.54 µM
Clc1ccc(-c2nnc(-c3ccccc3)c(-c3ccccc3)n2)cc1 | 3.69 µM
CC(C)(C)OC(=O)NCc1ccc(NC(=O)c2nc[nH]c2C(=O)NCCCCNC(=O)c2[nH]cnc2C(=O)Nc2ccc(CNC(=O)OC(C)(C)C)cc2)cc1 | 2.15 µM
COc1cc(OC)c(C=O)c(OC(=O)N2CCOCC2)c1 | > 19.5 µM (inactive)
O=C(NCc1ccco1)c1nc2c(nnn2Cc2ccccc2Cl)c(=O)[nH]1 | 1.92 µM
Cc1ncc(CN2CCCC(C(=O)Nc3ccc(-c4cccc(F)c4)cc3)C2)s1 (stereo not drawn) | 11.7 µM
